Like-named read-outs stand apart in the source and are kept apart here.
Assays:
P. aeruginosa = test: MIC by serial two-fold agar dilution (Mueller-Hinton agar), P. aeruginosa, primary screening; type: cell-based; settings: Pseudomonas aeruginosa, read-out: MIC
Method in brief: (§1)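 Read-out is the minimum inhibitory concentration from agar plates (Mueller-Hinton) carrying serial two-fold drug dilutions, inoculated via Steers' apparatus. Strains: 31 test organisms in primary screening, 61 P. aeruginosa isolates for secondary evaluation.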

S. aureus = test: MIC by serial two-fold agar dilution (Mueller-Hinton agar), S. aureus; type: cell-based; settings: Staphylococcus aureus
Method in brief: as §1

P. mirabilis = test: MIC by serial two-fold agar dilution (Mueller-Hinton agar), P. mirabilis; type: cell-based; settings: Proteus mirabilis; P. mirabilis A9900, Table 6; read-out: MIC
Method in brief: (§2)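 Steers' apparatus delivers inocula onto Mueller-Hinton agar containing serial two-fold dilutions; MIC is recorded per strain.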

S. enteritidis = test: MIC by serial two-fold agar dilution (Mueller-Hinton agar), S. enteritidis; type: cell-based; settings: Salmonella enterica; S. enteritidis A9531, Table 6; read-out: MIC
Method in brief: as §2

E. coli Juhl = test: Median curative dose in mice, infection with E. coli Juhl; type: in vivo; settings: Escherichia coli, sc; mice, E. coli Juhl infection, Table 5; read-out: PD50
Description: (§3) Median Curative Dose in Mgm./Kg.
(§4) Upon Subcutaneous Injection in Mice

P. vulgaris = test: MIC by serial two-fold agar dilution (Mueller-Hinton agar), P. vulgaris; type: cell-based; settings: Proteus vulgaris; P. vulgaris A9539, Table 6; read-out: MIC
Method in brief: as §2

S. marcescens = test: MIC by serial two-fold agar dilution (Mueller-Hinton agar), S. marcescens; type: cell-based; settings: Serratia marcescens; S. marcescens A20019, Table 6; read-out: MIC
Method in brief: as §2

Pseudomonas aeruginosa = test: MIC by agar dilution against 61 strains of Pseudomonas aeruginosa, secondary evaluation; type: cell-based; settings: for MIC: Pseudomonas aeruginosa
Method in brief: as §1

Ps. aeruginosa A9843 = test: Median curative dose in mice, infection with Ps. aeruginosa; type: in vivo; settings: Pseudomonas aeruginosa, A9843, sc, mice, P. aerug. A9843 infection, Table 5; read-out: PD50
Description: as §3, §4

E. cloacae = test: MIC by serial two-fold agar dilution (Mueller-Hinton agar), E. cloacae; type: cell-based; settings: Enterobacter cloacae
Method in brief: as §1

Klebsiella sp. = test: MIC by serial two-fold agar dilution (Mueller-Hinton agar), Klebsiella sp.; type: cell-based; settings: Klebsiella sp. A20452, Table 6; read-out: MIC
Method in brief: as §2

Pseudomonas (6 strains) = test: Mean % relative activity (MIC) vs sulbenicillin, Pseudomonas (6 strains); type: cell-based; settings: P. aerug. (6 strains), Table 5
Protocol: Minimum inhibitory concentrations (MIC) of BB-S520 were determined by serial two-fold agar dilution method using Steers' apparatus on Meuller-Hinton agar plate against 31 test organisms for the primary screening and also against 61 strains of Pseudomonas aeruginosa for the secondary evaluation. The results are shown in Table 1 and Table 2 along with those of BB-S514 and sulbenicillin.
Minimum inhibitory concentrations (MIC) of cephalosporins in the present study were determined by serial two-fold agar dilution method using Steers' apparatus on Mueller-Hinton agar plate against 31 test organisms for the primary screening and also against 61 strains of Pseudomonas aeruginosa for the secondary evaluation.

NC(=O)OCC1=C(C(=O)O)N2C(=O)C(NC(=O)[C@H](NC(=O)c3cnc4cccnc4c3O)c3ccc(O)cc3)C2SC1 (single isomer, unassigned) [BB-S530, Sodium 7-[D-(-)-α-(4-hydroxy-1,5-naphthyridine-3-carboxamido)-α-(p-hydroxyphenyl)acetamido]-3-carbamoyloxymethyl-3-cephem-4-carboxylate]
MIC (P. aeruginosa; P. aeruginosa A9843, Table 6): 1.6 mg/L
MIC (P. aeruginosa; P. aeruginosa A9930, Table 6): 0.8 mg/L
MIC (P. aeruginosa; P. aeruginosa A15150, Table 6): 1.6 mg/L
MIC (P. aeruginosa; P. aeruginosa A20229, Table 6): 1.6 mg/L
MIC (P. aeruginosa; P. aeruginosa A20717, Table 6): 3.1 mg/L
MIC (S. aureus; S. aureus BX-1633 A9606, Table 6, read-out: MIC): 3.1 mg/L
MIC (S. aureus; S. aureus Smith A9537, Table 6, read-out: MIC): 1.6 mg/L
MIC (S. aureus; S. aureus Smith A15907, Table 6): 25 mg/L
MIC (S. aureus; S. aureus Smith A20239, Table 6, read-out: MIC): 3.1 mg/L
MIC (S. aureus; S. aureus Smith A20240, Table 6, read-out: MIC): 3.1 mg/L
MIC (S. aureus; S. aureus Smith A20701, Table 6, read-out: MIC): 25 mg/L
MIC (P. mirabilis): 6.3 mg/L
MIC (S. enteritidis): 0.8 mg/L
ED50 (E. coli Juhl): 1.8 mg/kg
MIC (P. vulgaris): > 100 mg/L
MIC (S. marcescens): > 100 mg/L
Rel. Act. (SBPC=100%) (Pseudomonas aeruginosa; 61 strains of Pseudomonas aeruginosa, Table 7): 1694%
Mean % Relative Activity (SPBC = 100%) (Pseudomonas aeruginosa; P. aerug. (61 strains), Table 5): 1694%
MIC (Pseudomonas aeruginosa; 61 strains of Pseudomonas aeruginosa, Table 7, read-out: Geometric Mean of MIC): 1.4 mg/L
MIC (Pseudomonas aeruginosa; BBRI Pa-No. 1, D15, Table 7, read-out: MIC): 6.3 mg/L
MIC (Pseudomonas aeruginosa; BBRI Pa-No. 2, VA, Table 7, read-out: MIC): 1.6 mg/L
MIC (Pseudomonas aeruginosa; BBRI Pa-No. 3, 1449VA, Table 7, read-out: MIC): 0.8 mg/L
MIC (Pseudomonas aeruginosa; BBRI Pa-No. 4, H9 D113, Table 7, read-out: MIC): 1.6 mg/L
MIC (Pseudomonas aeruginosa; BBRI Pa-No. 5, N4865KC, Table 7, read-out: MIC): 1.6 mg/L
MIC (Pseudomonas aeruginosa; BBRI Pa-No. 6, No. 5, Table 7, read-out: MIC): 6.3 mg/L
MIC (Pseudomonas aeruginosa; BBRI Pa-No. 7, Table 7, read-out: MIC): 1.6 mg/L
MIC (Pseudomonas aeruginosa; BBRI Pa-No. 8, Table 7, read-out: MIC): 1.6 mg/L
MIC (Pseudomonas aeruginosa; BBRI Pa-No. 9, Yale, Table 7, read-out: MIC): 1.6 mg/L
MIC (Pseudomonas aeruginosa; BBRI Pa-No. 10, Table 7, read-out: MIC): 100 mg/L
MIC (Pseudomonas aeruginosa; BBRI Pa-No. 11, Table 7, read-out: MIC): 1.6 mg/L
MIC (Pseudomonas aeruginosa; BBRI Pa-No. 12, Table 7, read-out: MIC): 1.6 mg/L
MIC (Pseudomonas aeruginosa; BBRI Pa-No. 14, Table 7, read-out: MIC): 0.8 mg/L
MIC (Pseudomonas aeruginosa; BBRI Pa-No. 15, Table 7, read-out: MIC): 3.1 mg/L
MIC (Pseudomonas aeruginosa; BBRI Pa-No. 16, No. 130, Table 7, read-out: MIC): < 0.2 mg/L
MIC (Pseudomonas aeruginosa; BBRI Pa-No. 17, H6 D114, Table 7, read-out: MIC): 12.5 mg/L
MIC (Pseudomonas aeruginosa; BBRI Pa-No. 18, H8 D121, Table 7, read-out: MIC): 0.4 mg/L
MIC (Pseudomonas aeruginosa; BBRI Pa-No. 19, Table 7, read-out: MIC): 0.4 mg/L
MIC (Pseudomonas aeruginosa; BBRI Pa-No. 20, Table 7, read-out: MIC): 1.6 mg/L
MIC (Pseudomonas aeruginosa; BBRI Pa-No. 21, Table 7, read-out: MIC): 1.6 mg/L
MIC (Pseudomonas aeruginosa; BBRI Pa-No. 23, Table 7, read-out: MIC): 1.6 mg/L
MIC (Pseudomonas aeruginosa; BBRI Pa-No. 24, Table 7, read-out: MIC): 50 mg/L
MIC (Pseudomonas aeruginosa; BBRI Pa-No. 25, Table 7, read-out: MIC): 0.8 mg/L
MIC (Pseudomonas aeruginosa; BBRI Pa-No. 26, Ps32, Table 7, read-out: MIC): 6.3 mg/L
MIC (Pseudomonas aeruginosa; BBRI Pa-No. 28, CPH1C527/72, Table 7, read-out: MIC): 1.6 mg/L
MIC (Pseudomonas aeruginosa; BBRI Pa-No. 29, D122, Table 7, read-out: MIC): 0.8 mg/L
MIC (Pseudomonas aeruginosa; BBRI Pa-No. 30, Table 7, read-out: MIC): 0.8 mg/L
MIC (Pseudomonas aeruginosa; BBRI Pa-No. 31, Table 7, read-out: MIC): < 0.2 mg/L
MIC (Pseudomonas aeruginosa; BBRI Pa-No. 32, Table 7, read-out: MIC): 0.8 mg/L
MIC (Pseudomonas aeruginosa; BBRI Pa-No. 33, Table 7, read-out: MIC): 0.8 mg/L
MIC (Pseudomonas aeruginosa; BBRI Pa-No. 34, Table 7, read-out: MIC): 0.4 mg/L
MIC (Pseudomonas aeruginosa; BBRI Pa-No. 35, Table 7, read-out: MIC): 1.6 mg/L
MIC (Pseudomonas aeruginosa; BBRI Pa-No. 36, Table 7, read-out: MIC): < 0.2 mg/L
MIC (Pseudomonas aeruginosa; BBRI Pa-No. 37, Table 7, read-out: MIC): 1.6 mg/L
MIC (Pseudomonas aeruginosa; BBRI Pa-No. 38, Table 7, read-out: MIC): 3.1 mg/L
MIC (Pseudomonas aeruginosa; BBRI Pa-No. 39, Table 7, read-out: MIC): 0.8 mg/L
MIC (Pseudomonas aeruginosa; BBRI Pa-No. 41, Table 7, read-out: MIC): 1.6 mg/L
MIC (Pseudomonas aeruginosa; BBRI Pa-No. 42, Table 7, read-out: MIC): 1.6 mg/L
MIC (Pseudomonas aeruginosa; BBRI Pa-No. 43, Table 7, read-out: MIC): 1.6 mg/L
MIC (Pseudomonas aeruginosa; BBRI Pa-No. 44 (unnamed strain), Table 7, read-out: MIC): 1.6 mg/L
MIC (Pseudomonas aeruginosa; BBRI Pa-No. 51, Table 7, read-out: MIC): 0.8 mg/L
MIC (Pseudomonas aeruginosa; BBRI Pa-No. 52, Table 7, read-out: MIC): 1.6 mg/L
MIC (Pseudomonas aeruginosa; BBRI Pa-No. 53, Table 7, read-out: MIC): 0.8 mg/L
MIC (Pseudomonas aeruginosa; BBRI Pa-No. 54, Table 7, read-out: MIC): 0.8 mg/L
MIC (Pseudomonas aeruginosa; BBRI Pa-No. 55, Table 7, read-out: MIC): 1.6 mg/L
MIC (Pseudomonas aeruginosa; BBRI Pa-No. 56, Table 7, read-out: MIC): 1.6 mg/L
MIC (Pseudomonas aeruginosa; BBRI Pa-No. 57, Table 7, read-out: MIC): 0.8 mg/L
MIC (Pseudomonas aeruginosa; BBRI Pa-No. 58, Table 7, read-out: MIC): 1.6 mg/L
MIC (Pseudomonas aeruginosa; BBRI Pa-No. 59, Table 7, read-out: MIC): 0.8 mg/L
MIC (Pseudomonas aeruginosa; BBRI Pa-No. 60, Table 7, read-out: MIC): 0.8 mg/L
MIC (Pseudomonas aeruginosa; BBRI Pa-No. 61, Table 7, read-out: MIC): 1.6 mg/L
MIC (Pseudomonas aeruginosa; BBRI Pa-No. 62, Table 7, read-out: MIC): 100 mg/L
MIC (Pseudomonas aeruginosa; BBRI Pa-No. 64, Table 7, read-out: MIC): 1.6 mg/L
MIC (Pseudomonas aeruginosa; BBRI Pa-No. 65, Table 7, read-out: MIC): 1.6 mg/L
MIC (Pseudomonas aeruginosa; BBRI Pa-No. 66, Table 7, read-out: MIC): 0.8 mg/L
MIC (Pseudomonas aeruginosa; BBRI Pa-No. 67, Table 7, read-out: MIC): 1.6 mg/L
MIC (Pseudomonas aeruginosa; BBRI Pa-No. 68, Table 7, read-out: MIC): 1.6 mg/L
MIC (Pseudomonas aeruginosa; BBRI Pa-No. 69, Table 7, read-out: MIC): 3.1 mg/L
MIC (Pseudomonas aeruginosa; BBRI Pa-No. 70, K-Ps102(CR-102), Table 7, read-out: MIC): 0.8 mg/L
MIC (Pseudomonas aeruginosa; GN315, BBRI Pa-No. 27, GN315, Table 7, read-out: MIC): 0.4 mg/L
MIC (Pseudomonas aeruginosa; GN4925, BBRI Pa-No. 44, GN4925, Table 7, read-out: MIC): 1.6 mg/L
ED50 (Ps. aeruginosa A9843): 9.3 mg/kg
MIC (E. cloacae; E. cloacae A9656, Table 6): 12.5 mg/L
MIC (E. cloacae; E. cloacae A9657, Table 6): 100 mg/L
MIC (E. cloacae; E. cloacae A9659, Table 6): 100 mg/L
MIC (Klebsiella sp.): 1.6 mg/L
Mean % Relative Activity (SPBC = 100%) (Pseudomonas (6 strains)): 1425%

Reference: patent US4138554A, “7-[D-α-(4-Hydroxy-1,5-naphthyridine-3-carboxamido)-α-phenyl (and p-hydroxyphenyl)acetamido]-3-carbamoyloxymethyl-3-cephem-4-carboxylic acids” (priority 1977, dated 1979)
